The text below walks through data of paper PMC3353973 (PLoS ONE, 2012).

Read-outs that look alike come from different tables or passages of the source. Numbered stars: 1 amine (or outer) side, 2 acyl side, 3 side chain; on linkers, the order of the positions; unused ones are H or OH. Bridge positions count the residues as written; N and C are the ends. I, II: the chains in the order shown. * marks the point of attachment. X1 = CC(C)CCC[C@@H](C)[C@H]1CC[C@H]2[C@@H]3CC=C4C[C@@H](OCCN(CCNC(=O)CCOCCOCCOCCOCCNC(=O)CCCN5C(=O)CC([*:1])C5=O)CCNC(=O)CCOCCOCCOCCOCCNC(=O)CCCN5C(=O)CC([*:2])C5=O)CC[C@]4(C)[C@H]3CC[C@]12C; Cam = NC(=O)C*

For experiment [1], the system named is HIV-1 BaL. The following applies: TZM-bl cells; for IC50: read-out: IC50, inhibition of HIV-1 infectivity, strain BaL, R5 strain BaL, moi 4, luciferase read-out after 48 h.
Experiment [2] concerns the target type 3 HPIV envelope glycoproteins mediated fusion (Human parainfluenza 3 virus, UniProt P06828). As to the kind of experiment: cell-based. The experiment is classed as cell-based, human parainfluenza virus type 3 (HPIV3).
For experiment [3], the target named is Nipah virus envelope glycoproteins mediated fusion (Nipah virus, UniProt Q9IH63). The experiment in a line: cell-based. The experiment is classed as cell-based.
The test system of experiment [4] is Nipah virus (isolate UMMC1).
In experiment [5] the test system is Nipah virus. More on the design: species or system golden hamster (Mesocricetus auratus). The following applies: hamster, in vivo.

type 3 HPIV envelope glycoproteins mediated fusion, sequence (P06828 19-109): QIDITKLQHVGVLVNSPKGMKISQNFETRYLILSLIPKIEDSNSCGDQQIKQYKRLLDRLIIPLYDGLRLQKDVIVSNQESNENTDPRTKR
type 3 HPIV envelope glycoproteins mediated fusion, sequence (P06828 110-539): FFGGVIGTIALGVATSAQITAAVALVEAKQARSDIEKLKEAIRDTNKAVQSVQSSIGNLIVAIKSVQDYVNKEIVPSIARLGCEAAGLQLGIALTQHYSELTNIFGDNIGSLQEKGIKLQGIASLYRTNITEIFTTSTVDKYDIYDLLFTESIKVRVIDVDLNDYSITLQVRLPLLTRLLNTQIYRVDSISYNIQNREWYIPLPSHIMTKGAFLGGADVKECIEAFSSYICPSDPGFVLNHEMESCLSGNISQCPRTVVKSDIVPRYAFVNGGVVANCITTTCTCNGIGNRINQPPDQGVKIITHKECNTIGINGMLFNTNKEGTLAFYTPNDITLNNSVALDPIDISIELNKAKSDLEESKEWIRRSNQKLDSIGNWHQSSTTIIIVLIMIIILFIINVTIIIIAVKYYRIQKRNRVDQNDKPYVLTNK
Nipah virus envelope glycoproteins mediated fusion, sequence (Q9IH63 110-546 limits assumed): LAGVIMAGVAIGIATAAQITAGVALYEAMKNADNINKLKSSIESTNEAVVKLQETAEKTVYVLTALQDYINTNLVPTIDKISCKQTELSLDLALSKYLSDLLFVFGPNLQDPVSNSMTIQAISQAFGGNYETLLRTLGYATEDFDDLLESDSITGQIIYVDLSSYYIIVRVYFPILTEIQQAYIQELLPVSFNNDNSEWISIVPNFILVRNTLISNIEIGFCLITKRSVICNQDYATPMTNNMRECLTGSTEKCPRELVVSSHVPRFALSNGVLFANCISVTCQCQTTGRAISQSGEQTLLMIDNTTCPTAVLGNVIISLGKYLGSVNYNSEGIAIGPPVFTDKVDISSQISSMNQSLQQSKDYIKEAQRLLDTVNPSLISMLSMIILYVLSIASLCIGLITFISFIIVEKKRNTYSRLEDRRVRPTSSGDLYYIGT
Nipah virus envelope glycoproteins mediated fusion, sequence (Q9IH63 27-109 partner limits assumed): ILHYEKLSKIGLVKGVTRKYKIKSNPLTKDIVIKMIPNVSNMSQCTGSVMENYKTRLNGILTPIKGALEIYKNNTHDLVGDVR

Consider `CC[C@H](C)[C@H](NC(=O)[C@H](CC(C)C)NC(=O)[C@H](CO)NC(=O)[C@H](Cc1c[nH]cn1)NC(=O)[C@@H](NC(=O)[C@H](CC(C)C)NC(=O)[C@H](CO)NC(=O)[C@@H](NC(=O)[C@H](Cc1ccc(O)cc1)NC(=O)[C@H](CC(N)=O)NC(=O)[C@H](CC(N)=O)NC(=O)[C@@H](NC(=O)[C@H](CCC(=O)O)NC(=O)[C@H](CCCNC(=N)N)NC(=O)[C@H](CC(=O)O)NC(=O)[C@H](Cc1c[nH]c2ccccc12)NC(=O)[C@H](CCC(=O)O)NC(=O)[C@H](CCSC)NC(=O)[C@H](Cc1c[nH]c2ccccc12)NC(C)=O)[C@@H](C)CC)[C@@H](C)O)[C@@H](C)CC)C(=O)N[C@@H](CCC(=O)O)C(=O)N[C@@H](CCC(=O)O)C(=O)N[C@@H](CO)C(=O)N[C@@H](CCC(N)=O)C(=O)N[C@@H](CC(N)=O)C(=O)N[C@@H](CCC(N)=O)C(=O)N[C@@H](CCC(N)=O)C(=O)N[C@@H](CCC(=O)O)C(=O)N[C@@H](CCCCN)C(=O)N[C@@H](CC(N)=O)C(=O)N[C@@H](CCC(=O)O)C(=O)N[C@@H](CCC(N)=O)C(=O)N[C@@H](CCC(=O)O)C(=O)N[C@@H](CC(C)C)C(=O)N[C@@H](CC(C)C)C(=O)NCC(=O)N[C@@H](CO)C(=O)NCC(=O)N[C@@H](CSCC(N)=O)C(N)=O` [HIV-P2], for which the IC50 in experiment [1] is 60.1 ± 84 nM.

For `CC[C@H](C)[C@H](NC(=O)[C@H](CC(C)C)NC(=O)[C@H](CO)NC(=O)[C@H](Cc1c[nH]cn1)NC(=O)[C@@H](NC(=O)[C@H](CC(C)C)NC(=O)[C@H](CO)NC(=O)[C@@H](NC(=O)[C@H](Cc1ccc(O)cc1)NC(=O)[C@H](CC(N)=O)NC(=O)[C@H](CC(N)=O)NC(=O)[C@@H](NC(=O)[C@H](CCC(=O)O)NC(=O)[C@H](CCCNC(=N)N)NC(=O)[C@H](CC(=O)O)NC(=O)[C@H](Cc1c[nH]c2ccccc12)NC(=O)[C@H](CCC(=O)O)NC(=O)[C@H](CCSC)NC(=O)[C@H](Cc1c[nH]c2ccccc12)NC(C)=O)[C@@H](C)CC)[C@@H](C)O)[C@@H](C)CC)C(=O)N[C@@H](CCC(=O)O)C(=O)N[C@@H](CCC(=O)O)C(=O)N[C@@H](CO)C(=O)N[C@@H](CCC(N)=O)C(=O)N[C@@H](CC(N)=O)C(=O)N[C@@H](CCC(N)=O)C(=O)N[C@@H](CCC(N)=O)C(=O)N[C@@H](CCC(=O)O)C(=O)N[C@@H](CCCCN)C(=O)N[C@@H](CC(N)=O)C(=O)N[C@@H](CCC(=O)O)C(=O)N[C@@H](CCC(N)=O)C(=O)N[C@@H](CCC(=O)O)C(=O)N[C@@H](CC(C)C)C(=O)N[C@@H](CC(C)C)C(=O)NCC(=O)N[C@@H](CO)C(=O)NCC(=O)N[C@@H](CSC1CC(=O)N(CCCC(=O)NCCOCCOCCOCCOCCC(=O)NCCN(CCNC(=O)CCOCCOCCOCCOCCNC(=O)CCCN2C(=O)CC(SC[C@H](NC(=O)CNC(=O)[C@H](CO)NC(=O)CNC(=O)[C@H](CC(C)C)NC(=O)[C@H](CC(C)C)NC(=O)[C@H](CCC(=O)O)NC(=O)[C@H](CCC(N)=O)NC(=O)[C@H](CCC(=O)O)NC(=O)[C@H](CC(N)=O)NC(=O)[C@H](CCCCN)NC(=O)[C@H](CCC(=O)O)NC(=O)[C@H](CCC(N)=O)NC(=O)[C@H](CCC(N)=O)NC(=O)[C@H](CC(N)=O)NC(=O)[C@H](CCC(N)=O)NC(=O)[C@H](CO)NC(=O)[C@H](CCC(=O)O)NC(=O)[C@H](CCC(=O)O)NC(=O)[C@@H](NC(=O)[C@H](CC(C)C)NC(=O)[C@H](CO)NC(=O)[C@H](Cc3c[nH]cn3)NC(=O)[C@@H](NC(=O)[C@H](CC(C)C)NC(=O)[C@H](CO)NC(=O)[C@@H](NC(=O)[C@H](Cc3ccc(O)cc3)NC(=O)[C@H](CC(N)=O)NC(=O)[C@H](CC(N)=O)NC(=O)[C@@H](NC(=O)[C@H](CCC(=O)O)NC(=O)[C@H](CCCNC(=N)N)NC(=O)[C@H](CC(=O)O)NC(=O)[C@H](Cc3c[nH]c4ccccc34)NC(=O)[C@H](CCC(=O)O)NC(=O)[C@H](CCSC)NC(=O)[C@H](Cc3c[nH]c4ccccc34)NC(C)=O)[C@@H](C)CC)[C@@H](C)O)[C@@H](C)CC)[C@@H](C)CC)C(N)=O)C2=O)CCO[C@H]2CC[C@@]3(C)C(=CC[C@H]4[C@@H]5CC[C@H]([C@H](C)CCCC(C)C)[C@@]5(C)CC[C@@H]43)C2)C1=O)C(N)=O` (stereo partly shown) [HIV-P4], the “Potency increase versus the untagged HR-derived peptide (HIV-P2), strain BaL” value in experiment [1] (ratio of IC50) is on record as 6,000 fold. Besides, the concentration for half-maximal inhibition (IC50) in experiment [1] came to 0.01 ± 0.01 nM.

For “Ac-VALDPIDISIVLNKAKSDLEESKEWIRRSNGKLDSI-GSGSG-C(PEG4-Chol)-NH2 [HPIV-P3]”, in experiment [2], the “Fold more potent than the untagged inhibitor (HPIV-P2), HPIV3 fusion” value is reported as “≈ 10 fold”. Moreover, the half-maximal inhibitory concentration (IC50) in experiment [2] (read-out: IC50, inhibition of HPIV3 envelope glycoprotein mediated cell-to-cell fusion) was 10 to 100 nM; in experiment [3] (read-out: IC50, inhibition of NiV envelope glycoprotein mediated cell-to-cell fusion) it was 1 to 10 nM; in experiment [4] (read-out: IC50, NiV live virus plaque reduction), 8.02 ± 0.66 nM.

Consider “Ac-VALDPIDISIVLNKAKSDLEESKEWIRRSNGKLDSIGSGSGC(Cam)-NH2 [HPIV-P2]”, for which the 50% inhibitory concentration (IC50) in experiment [2] and in experiment [3] was above 100 nM throughout.

On to “I: Ac-VALDPIDISIVLNKAKSDLEESKEWIRRSNGKLDSIGSGSGC-NH2 / II: Ac-VALDPIDISIVLNKAKSDLEESKEWIRRSNGKLDSIGSGSGC-NH2 (linker I:42-II:42 via X1) [HPIV-P4]”, for which, in experiment [5], the “Onset of illness / lifespan of NiV-infected hamsters” value is given as “onset of the illness was considerably delayed in the other four, leading to a significantly extended lifespan” and the “Survival of NiV-infected hamsters” value is listed as “survival of one of the five animals”. Besides, in experiment [2], the IC50 is below 10 nM and the “Relative fusion inhibitory potency in words, HPIV3 fusion” value is reported as “considerably more potent than the cholesterol-tagged monomer”. Further, in experiment [3], the “Fold more potent than the cholesterol-tagged monomer (HPIV-P3), NiV fusion” value was “≈ 10 fold” and the 50% inhibitory concentration (IC50) was below 1 nM. In experiment [4] (1 h), the half-inhibitory concentration (IC50) came to 4.36 ± 1.3 nM.
